Among the data in patent US10064873B2, “Compounds and compositions for treating HIV with derivatives of Betulin” (GlaxoSmithKline LLC, priority 2011, dated 2018) are EC50 values, retold here.

The first assay relates to HIV NL4-3 wt. Kind of assay: MT4 antiviral assay, NL4-3 strain wild type. It is filed as cell-based, HIV-1. The settings on record: Human immunodeficiency virus 1, NL43, MT4, read-out: EC50 NL4-3 wt (nM).
For `CC(C)C1=C2[C@H]3CC[C@@H]4[C@@]5(C)CC[C@H](OC(=O)CC(C)(C)C(=O)O)C(C)(C)[C@@H]5CC[C@@]4(C)[C@]3(C)CC[C@@]2([C@@H](CN(CCN(C)C)Cc2ccc(Cl)cc2)OC(=O)CC(C)(C)C(=O)O)CC1=O` [Example 4, 4-((S)-1-((3aR,5aR,5bR,7aR,9S,11aR,11bR,13aS)-9-((3-Carboxy-3-methylbutanoyl)oxy)-1-isopropyl-5a,5b,8,8,11a-pentamethyl-2-oxo-3,3a,4,5,5a,5b,6,7,7a,8,9,10,11,11a,11b,12,13,13a-octadecahydro-2H-cyclopenta[a]chrysen-3a-yl)-2-((4-chlorobenzyl)(2-(dimethylamino)ethyl)amino)ethoxy)-2,2-dimethyl-4-oxobutanoic acid], the half-maximal effective concentration (EC50) came to 10.1 nM. Take `CC(=O)O[C@@H](CNCc1cccc(Cl)c1)[C@@]12CC[C@]3(C)[C@H](CC[C@@H]4[C@@]5(C)CC[C@H](OC(=O)CC(C)(C)C(=O)O)C(C)(C)[C@@H]5CC[C@]43C)C1=C(C(C)C)C(=O)C2` [Example 40, 4-(((3aR,5aR,5bR,7aR,9S,11aR,11bR,13aS)-3a-((R)-1-Acetoxy-2-((3-chlorobenzyl)amino)ethyl)-1-isopropyl-5a,5b,8,8,11a-pentamethyl-2-oxo-3,3a,4,5,5a,5b,6,7,7a,8,9,10,11,11a,11b,12,13,13a-octadecahydro-2H-cyclopenta[a]chrysen-9-yl)oxy)-2,2-dimethyl-4-oxobutanoic acid]: the concentration giving a half-maximal response (EC50) was 11.1 nM. Turning to `CC(C)C1=C2[C@H]3CC[C@@H]4[C@@]5(C)CC[C@H](OC(=O)CC(C)(C)C(=O)O)C(C)(C)[C@@H]5CC[C@@]4(C)[C@]3(C)CC[C@@]2(CCNCc2ccccc2Cl)CC1=O` [Example 82, 4-{[(1R,2R,5R,10S,13R,14R, 17S,19R)-5-(2-{[(2-chlorophenyl)methyl]amino}ethyl)-1,2,14,18,18-pentamethyl-7-oxo-8-(propan-2-yl)pentacyclo[11.8.0.0^ {2,10}.0^{5,9}.0^{14,19}]henicos-8-en-17-yl]oxy}-2,2-dimethyl-4-oxobutanoic acid], the 50% effective concentration (EC50) worked out at 8.9 nM.

The assay is the same for the next values; noted with them: Human immunodeficiency virus 1, NL43; MT4 cells; read-out: EC50 NL4-3 wt.
Regarding `CC(C)C1=C2[C@H]3CC[C@@H]4[C@@]5(C)CC[C@H](OC(=O)CC(C)(C)C(=O)O)C(C)(C)[C@@H]5CC[C@@]4(C)[C@]3(C)CC[C@@]2([C@H](O)CN(CCN(C)C)Cc2ccccc2Cl)CC1=O` [Compound 51], the concentration for a half-maximal effect (EC50) is 3.5 nM. With `CC(C)C1=C2[C@H]3CC[C@@H]4[C@@]5(C)CC[C@H](OC(=O)CC(C)(C)C(=O)O)C(C)(C)[C@@H]5CC[C@@]4(C)[C@]3(C)CC[C@@]2([C@@H](O)CNCc2ccccc2Cl)CC1=O` [Example 25, 4-(((3aR,5aR,5bR,7aR,9S,11aR,11bR,13aS)-3a-((R)-2-((2-chlorobenzyl)amino)-1-hydroxyethyl)-1-isopropyl-5a,5b,8,8,11a-pentamethyl-2-oxo-3,3a,4,5,5a,5b,6,7,7a,8,9,10,11,11a,11b,12,13,13a-octadecahydro-2H-cyclopenta[a]chrysen-9-yl)oxy)-2,2-dimethyl-4-oxobutanoic acid], the concentration for a half-maximal effect (EC50) was 14.7 nM. Regarding `CC(=O)O[C@@H](CN(CCN(C)C)Cc1ccc(Cl)cc1)[C@@]12CC[C@]3(C)[C@H](CC[C@@H]4[C@@]5(C)CC[C@H](OC(=O)CC(C)(C)C(=O)O)C(C)(C)[C@@H]5CC[C@]43C)C1=C(C(C)C)C(=O)C2` [Example 21, 4-(((3aR,5aR,5bR,7aR,9S,11aR,11bR,13aS)-3a-((R)-1-Acetoxy-2-((4-chlorobenzyl)(2-(dimethylamino)ethyl)amino)ethyl)-1-isopropyl-5a,5b,8,8,11a-pentamethyl-2-oxo-3,3a,4,5,5a,5b,6,7,7a,8,9,10,11,11a,11b,12,13,13a-octadecahydro-2H-cyclopenta[a]chrysen-9-yl)oxy)-2,2-dimethyl-4-oxobutanoic acid], the EC50 turned out to be 76.5 nM.

For `CC(=O)N(Cc1cccc(Cl)c1)C[C@H](O)[C@@]12CC[C@]3(C)[C@H](CC[C@@H]4[C@@]5(C)CC[C@H](OC(=O)CC(C)(C)C(=O)O)C(C)(C)[C@@H]5CC[C@]43C)C1=C(C(C)C)C(=O)C2` [Compound 46], the EC50 came to 11.1 nM. The same measure, in the same setting: as for `CC(C)C1=C2[C@H]3CC[C@@H]4[C@@]5(C)CC[C@H](OC(=O)CC(C)(C)C(=O)O)C(C)(C)[C@@H]5CC[C@@]4(C)[C@]3(C)CC[C@@]2([C@H](O)CN(CCN(C)C)Cc2ccc(Cl)cc2Cl)CC1=O` [Example 74, 4-(((3aR,5aR,5bR,7aR,9S,11aR,11bR,13aS)-3a-((S)-2-((2,4-dichlorobenzyl)(2-(dimethylamino)ethyl)amino)-1-hydroxyethyl)-1-isopropyl-5a,5b,8,8,11a-pentamethyl-2-oxo-3,3a,4,5,5a,5b,6,7,7a,8,9,10,11,11a,11b,12,13,13a-octadecahydro-2H-cyclopenta[a]chrysen-9-yl)oxy)-2,2-dimethyl-4-oxobutanoic acid], the figure is 2.9 nM. Still for that read-out and setting: as for `CC(=O)O[C@H](CN(CCN(C)C)Cc1ccc(F)cc1)[C@@]12CC[C@]3(C)[C@H](CC[C@@H]4[C@@]5(C)CC[C@H](OC(=O)CC(C)(C)C(=O)O)C(C)(C)[C@@H]5CC[C@]43C)C1=C(C(C)C)C(=O)C2` [Example 70, 4-(((3aR,5aR,5bR,7aR,9S,11aR,11bR,13aS)-3a-((S)-1-acetoxy-2-((2-(dimethylamino)ethyl)(4-fluorobenzyl)amino)ethyl)-1-isopropyl-5a,5b,8,8,11a-pentamethyl-2-oxo-3,3a,4,5,5a,5b,6,7,7a,8,9,10,11,11a,11b,12,13,13a-octadecahydro-2H-cyclopenta[a]chrysen-9-yl)oxy)-2,2-dimethyl-4-oxobutanoic acid], the figure is 1.6 nM. Turning to `CC(=O)O[C@H](CNCc1ccc(F)cc1)[C@@]12CC[C@]3(C)[C@H](CC[C@@H]4[C@@]5(C)CC[C@H](OC(=O)CC(C)(C)C(=O)O)C(C)(C)[C@@H]5CC[C@]43C)C1=C(C(C)C)C(=O)C2` [Example 26, 4-(((3aR,5aR,5bR,7aR,9S,11aR,11bR,13aS)-3a-((S)-1-Acetoxy-2-((4-fluorobenzyl)amino)ethyl)-1-isopropyl-5a,5b,8,8,11a-pentamethyl-2-oxo-3,3a,4,5,5a,5b,6,7,7a,8,9,10,11,11a,11b,12,13,13a-octadecahydro-2H-cyclopenta[a]chrysen-9-yl)oxy)-2,2-dimethyl-4-oxobutanoic acid], the EC50 was 4.9 nM.

For `CC(C)C1=C2[C@H]3CC[C@@H]4[C@@]5(C)CC[C@H](OC(=O)CC(C)(C)C(=O)O)C(C)(C)[C@@H]5CC[C@@]4(C)[C@]3(C)CC[C@@]2([C@@H](O)CN(CCN(C)C)Cc2ccccc2Cl)CC1=O` [Example 50, 4-(((3aR,5aR,5bR,7aR,9S,11aR,11bR,13aS)-3a-((R)-2-((2-chlorobenzyl)(2-(dimethylamino)ethyl)amino)-1-hydroxyethyl)-1-isopropyl-5a,5b,8,8,11a-pentamethyl-2-oxo-3,3a,4,5,5a,5b,6,7,7a,8,9,10,11,11a,11b,12,13,13a-octadecahydro-2H-cyclopenta[a]chrysen-9-yl)oxy)-2,2-dimethyl-4-oxobutanoic acid], the concentration giving a half-maximal response (EC50) came out at 1.1 nM. On the same count and under the same terms, as for `CC(=O)O[C@H](CN(CCN(C)C)Cc1ccc(Cl)cc1)[C@@]12CC[C@]3(C)[C@H](CC[C@@H]4[C@@]5(C)CC[C@H](OC(=O)CC(C)(C)C(=O)O)C(C)(C)[C@@H]5CC[C@]43C)C1=C(C(C)C)C(=O)C2` [Example 20, 4-(((3aR,5aR,5bR,7aR,9S,11aR,11bR,13aS)-3a-((S)-1-Acetoxy-2-((4-chlorobenzyl)(2-(dimethylamino)ethyl)amino)ethyl)-1-isopropyl-5a,5b,8,8,11a-pentamethyl-2-oxo-3,3a,4,5,5a,5b,6,7,7a,8,9,10,11,11a,11b,12,13,13a-octadecahydro-2H-cyclopenta[a]chrysen-9-yl)oxy)-2,2-dimethyl-4-oxobutanoic acid], the figure is 2.3 nM; as for `CC(=O)N(Cc1cccc(Cl)c1)C[C@@H](O)[C@@]12CC[C@]3(C)[C@H](CC[C@@H]4[C@@]5(C)CC[C@H](OC(=O)CC(C)(C)C(=O)O)C(C)(C)[C@@H]5CC[C@]43C)C1=C(C(C)C)C(=O)C2` [Example 47, 4-(((3aR,5aR,5bR,7aR,9S,11aR,11bR,13aS)-3a-((S)-2-(N-(3-chlorobenzyl)acetamido)-1-hydroxyethyl)-1-isopropyl-5a,5b,8,8,11a-pentamethyl-2-oxo-3,3a,4,5,5a,5b,6,7,7a,8,9,10,11,11a,11b,12,13,13a-octadecahydro-2H-cyclopenta[a]chrysen-9-yl)oxy)-2,2-dimethyl-4-oxobutanoic acid], 7.7 nM; as for `CC(C)C1=C2[C@H]3CC[C@@H]4[C@@]5(C)CC[C@H](OC(=O)CC(C)(C)C(=O)O)C(C)(C)[C@@H]5CC[C@@]4(C)[C@]3(C)CC[C@@]2([C@@H](O)CN(CCN(C)C)Cc2ccc(F)cc2)CC1=O` [Example 76, 4-(((3aR,5aR,5bR,7aR,9S,11aR,11bR,13aS)-3a-((R)-2-((2-(dimethylamino)ethyl)(4-fluorobenzyl)amino)-1-hydroxyethyl)-1-isopropyl-5a,5b,8,8,11a-pentamethyl-2-oxo-3,3a,4,5,5a,5b,6,7,7a,8,9,10,11,11a,11b,12,13,13a-octadecahydro-2H-cyclopenta[a]chrysen-9-yl)oxy)-2,2-dimethyl-4-oxobutanoic acid], 0.7 nM.

For the compound `CC(C)C1=C2[C@H]3CC[C@@H]4[C@@]5(C)CC[C@H](OC(=O)CC(C)(C)C(=O)O)C(C)(C)[C@@H]5CC[C@@]4(C)[C@]3(C)CC[C@@]2([C@@H](O)CNCc2ccc(F)cc2)CC1=O` [Example 77, 4-(((3aR,5aR,5bR,7aR,9S,11aR,11bR,13aS)-3a-((R)-2-((4-fluorobenzyl)amino)-1-hydroxyethyl)-1-isopropyl-5a,5b,8,8,11a-pentamethyl-2-oxo-3,3a,4,5,5a,5b,6,7,7a,8,9,10,11,11a,11b,12,13,13a-octadecahydro-2H-cyclopenta[a]chrysen-9-yl)oxy)-2,2-dimethyl-4-oxobutanoic acid], the EC50 stood at 4.7 nM.

Broadly, the EC50 is the concentration that produces a half-maximal response.
